ChEMBL document CHEMBL5291721, “A preclinical secondary pharmacology resource illuminates target-adverse drug reaction associations of marketed drugs” (Nat Commun, 2023)

How the values were obtained:
[1] = target: T1, Neuropeptide Y receptor type 1 (Homo sapiens, UniProt P25929)
T1 sequence (P25929 whole entry): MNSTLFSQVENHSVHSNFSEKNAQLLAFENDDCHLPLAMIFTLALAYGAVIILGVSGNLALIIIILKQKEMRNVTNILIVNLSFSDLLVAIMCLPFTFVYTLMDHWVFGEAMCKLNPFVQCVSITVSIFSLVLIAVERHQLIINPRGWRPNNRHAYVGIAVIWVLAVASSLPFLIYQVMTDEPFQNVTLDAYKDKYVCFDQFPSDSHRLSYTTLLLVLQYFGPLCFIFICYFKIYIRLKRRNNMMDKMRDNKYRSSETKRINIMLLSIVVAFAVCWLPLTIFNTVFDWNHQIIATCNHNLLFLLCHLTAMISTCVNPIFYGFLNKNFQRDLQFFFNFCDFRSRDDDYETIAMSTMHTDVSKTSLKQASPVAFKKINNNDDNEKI

[2] = target: Neuronal acetylcholine receptor subunit alpha-4 (Homo sapiens, UniProt P43681)
[3] = target: Glutamate receptor ionotropic, NMDA 1 (Rattus norvegicus, UniProt P35439)
[4] = target: 5-hydroxytryptamine receptor 2B (Homo sapiens, UniProt P41595); format: functional, cell-based
[5] = target: T2, Alpha-1A adrenergic receptor (Homo sapiens, UniProt P35348); format: functional, cell-based
T2 sequence (P35348 whole entry): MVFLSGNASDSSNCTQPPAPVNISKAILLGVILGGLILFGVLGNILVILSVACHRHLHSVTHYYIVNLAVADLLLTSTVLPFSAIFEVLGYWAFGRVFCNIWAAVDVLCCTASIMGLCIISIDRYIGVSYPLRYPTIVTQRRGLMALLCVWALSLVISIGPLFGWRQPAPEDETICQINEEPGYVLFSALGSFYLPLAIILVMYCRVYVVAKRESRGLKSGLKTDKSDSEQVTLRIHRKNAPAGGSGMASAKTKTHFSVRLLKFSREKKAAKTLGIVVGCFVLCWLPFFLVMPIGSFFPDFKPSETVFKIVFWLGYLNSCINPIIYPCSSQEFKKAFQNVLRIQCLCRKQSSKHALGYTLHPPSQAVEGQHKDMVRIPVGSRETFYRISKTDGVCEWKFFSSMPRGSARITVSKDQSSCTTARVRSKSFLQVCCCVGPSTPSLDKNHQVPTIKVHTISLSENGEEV

[6] = target: D(3) dopamine receptor (Homo sapiens, UniProt P35462)
[7] = target: D(1A) dopamine receptor (Homo sapiens, UniProt P21728); format: functional, cell-based
[8] = target: T3, 5-hydroxytryptamine receptor 1A (Homo sapiens, UniProt P08908); format: functional, cell-based
T3 sequence (P08908 whole entry): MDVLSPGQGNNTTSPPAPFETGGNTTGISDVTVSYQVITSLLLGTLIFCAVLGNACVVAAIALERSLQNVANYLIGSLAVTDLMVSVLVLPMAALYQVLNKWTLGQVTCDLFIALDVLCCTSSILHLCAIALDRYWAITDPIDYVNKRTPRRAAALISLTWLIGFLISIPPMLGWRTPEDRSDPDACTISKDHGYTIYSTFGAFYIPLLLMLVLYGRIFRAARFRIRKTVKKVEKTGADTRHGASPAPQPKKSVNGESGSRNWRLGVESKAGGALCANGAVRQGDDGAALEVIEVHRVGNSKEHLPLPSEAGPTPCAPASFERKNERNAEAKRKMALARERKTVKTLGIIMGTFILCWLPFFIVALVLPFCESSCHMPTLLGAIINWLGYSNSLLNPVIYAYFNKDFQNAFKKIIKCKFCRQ

[9] = target: 3',5'-cyclic-AMP phosphodiesterase 4D (Homo sapiens, UniProt Q08499); format: functional
[10] = target: Mu-type opioid receptor (Homo sapiens, UniProt P35372); experiment: biochemical; format: functional
[11] = target: Cannabinoid receptor 1 (Homo sapiens, UniProt P21554); format: functional, cell-based
[12] = target: T4, Alpha-2A adrenergic receptor (Homo sapiens, UniProt P08913); format: functional, cell-based
T4 sequence (P08913 whole entry): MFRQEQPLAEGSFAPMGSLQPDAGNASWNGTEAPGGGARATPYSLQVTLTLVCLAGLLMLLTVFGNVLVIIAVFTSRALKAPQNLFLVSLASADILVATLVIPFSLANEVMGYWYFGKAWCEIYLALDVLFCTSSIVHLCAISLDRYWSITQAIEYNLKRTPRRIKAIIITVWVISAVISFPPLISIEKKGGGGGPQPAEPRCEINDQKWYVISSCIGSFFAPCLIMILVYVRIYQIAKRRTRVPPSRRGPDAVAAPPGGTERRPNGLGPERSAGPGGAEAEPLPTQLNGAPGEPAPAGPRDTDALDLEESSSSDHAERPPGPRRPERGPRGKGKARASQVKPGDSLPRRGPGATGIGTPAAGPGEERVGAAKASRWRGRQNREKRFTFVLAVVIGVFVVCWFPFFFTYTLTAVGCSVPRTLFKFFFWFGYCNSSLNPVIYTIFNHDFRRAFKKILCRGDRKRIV

[13] = target: T5, Estrogen receptor (Homo sapiens, UniProt P03372)
T5 sequence (P03372 whole entry): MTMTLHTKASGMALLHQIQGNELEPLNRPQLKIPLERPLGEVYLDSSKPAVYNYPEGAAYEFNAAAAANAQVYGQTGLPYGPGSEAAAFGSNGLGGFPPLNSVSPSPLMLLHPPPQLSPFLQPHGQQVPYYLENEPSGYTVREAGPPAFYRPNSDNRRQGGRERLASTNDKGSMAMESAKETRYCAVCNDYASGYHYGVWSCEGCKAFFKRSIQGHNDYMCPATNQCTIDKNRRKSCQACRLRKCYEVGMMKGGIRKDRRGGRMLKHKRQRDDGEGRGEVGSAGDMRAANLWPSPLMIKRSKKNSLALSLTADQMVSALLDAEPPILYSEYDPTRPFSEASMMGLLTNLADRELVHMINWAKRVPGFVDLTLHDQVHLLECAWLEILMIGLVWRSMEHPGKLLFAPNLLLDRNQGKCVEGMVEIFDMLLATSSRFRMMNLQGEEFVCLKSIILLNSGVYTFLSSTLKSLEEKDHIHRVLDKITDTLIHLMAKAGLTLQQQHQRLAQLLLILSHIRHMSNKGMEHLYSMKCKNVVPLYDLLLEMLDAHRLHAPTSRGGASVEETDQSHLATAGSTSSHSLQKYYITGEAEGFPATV

[14] = target: Adenosine receptor A2a (Homo sapiens, UniProt P29274)
Note: assay procedure not described here.

D(1A) dopamine receptor, sequence (P21728 whole entry): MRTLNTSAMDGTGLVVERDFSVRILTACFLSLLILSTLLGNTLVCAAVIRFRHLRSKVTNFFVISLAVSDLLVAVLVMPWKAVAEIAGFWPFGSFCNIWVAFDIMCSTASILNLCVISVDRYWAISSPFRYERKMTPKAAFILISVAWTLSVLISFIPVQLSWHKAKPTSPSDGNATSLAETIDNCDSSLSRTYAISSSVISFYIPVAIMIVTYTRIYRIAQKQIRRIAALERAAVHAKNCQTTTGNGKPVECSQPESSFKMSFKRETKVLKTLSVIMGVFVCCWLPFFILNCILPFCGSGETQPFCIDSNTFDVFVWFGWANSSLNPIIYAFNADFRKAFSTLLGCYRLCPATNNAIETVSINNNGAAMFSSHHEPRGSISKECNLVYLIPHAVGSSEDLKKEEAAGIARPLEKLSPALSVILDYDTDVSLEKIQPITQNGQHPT
Adenosine receptor A2a, sequence (P29274 whole entry): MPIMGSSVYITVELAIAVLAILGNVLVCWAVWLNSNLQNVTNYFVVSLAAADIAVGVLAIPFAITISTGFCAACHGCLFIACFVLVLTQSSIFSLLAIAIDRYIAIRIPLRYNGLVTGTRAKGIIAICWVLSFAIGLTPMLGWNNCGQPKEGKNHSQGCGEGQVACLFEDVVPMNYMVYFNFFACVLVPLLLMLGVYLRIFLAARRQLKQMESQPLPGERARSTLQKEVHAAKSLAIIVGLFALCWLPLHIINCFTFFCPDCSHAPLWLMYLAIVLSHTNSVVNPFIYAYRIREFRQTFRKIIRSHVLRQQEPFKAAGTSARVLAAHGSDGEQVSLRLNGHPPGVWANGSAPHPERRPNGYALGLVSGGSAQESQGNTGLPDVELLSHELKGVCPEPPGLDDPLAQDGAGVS
D(3) dopamine receptor, sequence (P35462 whole entry): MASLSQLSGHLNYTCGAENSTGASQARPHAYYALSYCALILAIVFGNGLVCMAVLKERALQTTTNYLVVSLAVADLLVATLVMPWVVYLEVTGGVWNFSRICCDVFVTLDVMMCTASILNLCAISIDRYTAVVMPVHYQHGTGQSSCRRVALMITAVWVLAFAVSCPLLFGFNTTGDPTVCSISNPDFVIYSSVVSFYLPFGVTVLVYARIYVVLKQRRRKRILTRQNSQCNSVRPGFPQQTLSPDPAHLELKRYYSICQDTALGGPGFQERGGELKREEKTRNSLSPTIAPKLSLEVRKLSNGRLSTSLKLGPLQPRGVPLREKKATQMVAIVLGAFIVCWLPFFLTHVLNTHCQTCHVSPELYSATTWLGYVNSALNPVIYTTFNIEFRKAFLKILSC
5-hydroxytryptamine receptor 2B, sequence (P41595 whole entry): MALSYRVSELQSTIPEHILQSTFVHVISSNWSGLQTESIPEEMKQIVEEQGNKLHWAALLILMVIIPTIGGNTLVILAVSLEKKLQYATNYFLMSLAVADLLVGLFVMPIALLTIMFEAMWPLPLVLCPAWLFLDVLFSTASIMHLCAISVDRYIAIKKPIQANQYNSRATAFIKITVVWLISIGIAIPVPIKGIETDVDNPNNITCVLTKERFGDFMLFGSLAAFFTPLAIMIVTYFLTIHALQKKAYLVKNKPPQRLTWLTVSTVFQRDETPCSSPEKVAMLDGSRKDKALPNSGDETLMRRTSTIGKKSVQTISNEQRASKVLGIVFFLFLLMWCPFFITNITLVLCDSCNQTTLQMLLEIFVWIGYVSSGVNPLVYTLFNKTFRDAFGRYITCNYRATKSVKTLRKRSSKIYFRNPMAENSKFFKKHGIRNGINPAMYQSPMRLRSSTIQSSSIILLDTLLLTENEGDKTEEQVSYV
Cannabinoid receptor 1, sequence (P21554 whole entry): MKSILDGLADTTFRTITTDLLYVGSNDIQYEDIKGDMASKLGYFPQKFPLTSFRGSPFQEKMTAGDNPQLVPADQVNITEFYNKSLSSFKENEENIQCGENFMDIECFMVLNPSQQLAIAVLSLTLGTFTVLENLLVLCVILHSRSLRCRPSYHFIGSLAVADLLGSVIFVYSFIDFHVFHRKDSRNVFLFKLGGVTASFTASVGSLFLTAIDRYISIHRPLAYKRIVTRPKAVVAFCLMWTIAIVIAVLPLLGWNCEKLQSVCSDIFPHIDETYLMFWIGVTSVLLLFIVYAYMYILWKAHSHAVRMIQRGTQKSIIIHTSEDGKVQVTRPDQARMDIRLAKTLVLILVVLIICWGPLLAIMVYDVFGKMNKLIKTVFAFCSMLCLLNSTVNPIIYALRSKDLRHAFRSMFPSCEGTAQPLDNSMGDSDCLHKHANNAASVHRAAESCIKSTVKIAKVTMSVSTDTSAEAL
Mu-type opioid receptor, sequence (P35372 whole entry): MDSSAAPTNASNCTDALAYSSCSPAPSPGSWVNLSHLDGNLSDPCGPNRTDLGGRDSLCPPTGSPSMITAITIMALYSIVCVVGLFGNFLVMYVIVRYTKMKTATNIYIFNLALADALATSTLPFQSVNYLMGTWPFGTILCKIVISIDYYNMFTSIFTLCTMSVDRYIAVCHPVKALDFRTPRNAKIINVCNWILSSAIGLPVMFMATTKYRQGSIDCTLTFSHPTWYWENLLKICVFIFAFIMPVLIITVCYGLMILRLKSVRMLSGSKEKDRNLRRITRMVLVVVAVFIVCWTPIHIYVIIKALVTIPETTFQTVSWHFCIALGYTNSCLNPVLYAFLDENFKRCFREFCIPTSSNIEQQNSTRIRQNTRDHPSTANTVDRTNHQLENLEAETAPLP
Neuronal acetylcholine receptor subunit alpha-4, sequence (P43681 whole entry): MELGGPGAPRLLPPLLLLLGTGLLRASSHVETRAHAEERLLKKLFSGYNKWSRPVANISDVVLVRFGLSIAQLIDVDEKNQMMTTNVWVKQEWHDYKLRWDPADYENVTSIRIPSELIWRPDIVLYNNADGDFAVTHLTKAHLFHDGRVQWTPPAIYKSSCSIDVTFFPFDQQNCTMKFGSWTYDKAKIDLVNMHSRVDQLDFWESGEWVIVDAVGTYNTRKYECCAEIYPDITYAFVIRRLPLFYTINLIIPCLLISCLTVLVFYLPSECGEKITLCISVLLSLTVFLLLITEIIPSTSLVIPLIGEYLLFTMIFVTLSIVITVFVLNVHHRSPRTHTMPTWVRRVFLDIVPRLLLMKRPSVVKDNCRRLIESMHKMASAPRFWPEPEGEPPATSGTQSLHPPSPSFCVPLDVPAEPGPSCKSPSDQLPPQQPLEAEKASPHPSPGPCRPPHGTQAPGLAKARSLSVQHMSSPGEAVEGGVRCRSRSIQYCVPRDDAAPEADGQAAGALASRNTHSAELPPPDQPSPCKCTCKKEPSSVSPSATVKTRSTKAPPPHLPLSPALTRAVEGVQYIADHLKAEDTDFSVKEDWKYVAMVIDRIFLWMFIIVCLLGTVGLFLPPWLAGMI
3',5'-cyclic-AMP phosphodiesterase 4D, sequence (Q08499 whole entry): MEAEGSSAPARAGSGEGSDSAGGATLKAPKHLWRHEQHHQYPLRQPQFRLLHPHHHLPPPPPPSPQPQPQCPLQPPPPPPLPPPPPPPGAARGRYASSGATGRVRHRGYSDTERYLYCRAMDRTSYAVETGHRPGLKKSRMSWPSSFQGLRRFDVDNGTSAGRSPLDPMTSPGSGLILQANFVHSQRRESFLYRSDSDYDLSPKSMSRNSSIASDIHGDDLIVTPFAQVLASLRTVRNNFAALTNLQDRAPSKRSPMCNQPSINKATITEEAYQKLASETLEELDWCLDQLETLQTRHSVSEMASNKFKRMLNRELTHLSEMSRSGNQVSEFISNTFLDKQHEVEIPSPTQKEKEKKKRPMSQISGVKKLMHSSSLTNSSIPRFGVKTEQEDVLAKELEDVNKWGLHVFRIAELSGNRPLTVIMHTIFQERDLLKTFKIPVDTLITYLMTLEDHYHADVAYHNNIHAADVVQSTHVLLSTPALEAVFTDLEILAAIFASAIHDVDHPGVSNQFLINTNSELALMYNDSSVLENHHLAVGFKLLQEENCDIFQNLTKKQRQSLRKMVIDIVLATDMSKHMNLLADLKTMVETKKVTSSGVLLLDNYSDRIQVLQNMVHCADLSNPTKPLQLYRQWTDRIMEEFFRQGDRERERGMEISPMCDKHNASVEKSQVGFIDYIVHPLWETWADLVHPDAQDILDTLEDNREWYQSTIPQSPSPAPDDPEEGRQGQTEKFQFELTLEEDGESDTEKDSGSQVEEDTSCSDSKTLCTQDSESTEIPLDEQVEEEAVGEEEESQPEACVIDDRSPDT

Structure (SMILES)	AC50 [1] [µM]	AC50 [2] [µM]	AC50 [3] [µM]	AC50 [4] [µM]	AC50 [5] [µM]	AC50 [6] [µM]	AC50 [7] [µM]	AC50 [8] [µM]	AC50 [9] [µM]	AC50 [10] [µM]	AC50 [11] [µM]	AC50 [12] [µM]	AC50 [13] [µM]	AC50 [14] [µM]
N#Cc1ccccc1-c1cc(-c2ccccn2)cn(-c2ccccc2)c1=O	> 30	> 30	> 30	> 30	> 30	> 30	> 30	> 30	13	> 30	> 30	> 30	> 30	> 30
N=C(N)NCCCCCCC(=O)NC(O)C(=O)NCCCCNCCCN (stereo not given)	> 30	> 30	> 30	> 30	> 30	> 30	> 30	> 30	> 30	> 30	> 30	> 30	> 30	> 30
O=C(CCCN1CCC(n2c(O)nc3ccccc32)CC1)c1ccc(F)cc1 [BENPERIDOL]	> 30	> 30	> 30	6.59	0.0706	0.0053	> 30	> 30	> 30	> 30	> 30	19.2	> 30	> 30
CCN(CC)C(=O)C1CN2CCc3cc(OC)c(OC)cc3C2CC1OC(C)=O (stereo not given) [BENZQUINAMIDE]	> 30	> 30	> 30	0.32	> 30	14.4	> 30	> 30	> 30	> 30	> 30	0.735	> 30	> 30
CCC(=O)OCC(=O)[C@@]1(OC(=O)CC)[C@@H](C)C[C@H]2[C@@H]3CCC4=CC(=O)C=C[C@]4(C)[C@@]3(F)[C@@H](O)C[C@@]21C [BETAMETHASONE DIPROPIONATE]	> 30	> 30	> 30	> 30	> 30	> 30	> 30	> 30	> 30	> 30	> 30	> 30	> 10	> 30
CS(=O)(=O)OCCCCOS(C)(=O)=O [BUSULFAN]	> 30	> 30	> 30	> 30	> 30	> 30	> 30	> 30	> 30	> 30	> 30	> 30	> 30	> 30
CCCCC1(CC)C(=O)NC(=O)NC1=O [BUTETHAL]	> 30	> 30	> 30	> 30	> 30	> 30	> 30	> 30	> 30	> 30	> 30	> 30	> 30	> 30
CCOC(=O)NNc1ccc(N(CC)CC(C)O)nn1 (stereo not given) [CADRALAZINE]	> 30	> 30	> 30	> 30	> 30	> 30	> 30	> 30	> 30	> 30	> 30	> 30	> 30	> 30
CCN(CC)CCOC(=O)c1ccc(N)cc1Cl [CHLOROPROCAINE]	> 30	25	> 30	> 30	> 30	> 30	> 30	> 30	> 30	> 30	> 30	> 30	> 30	> 30
CCC(C)(Oc1ccc(C2(c3ccc(OC(C)(CC)C(=O)O)cc3)CCCCC2)cc1)C(=O)O (stereo not given) [CLINOFIBRATE]	> 30	> 30	> 30	> 30	> 30	> 30	> 30	> 30	> 30	> 30	> 30	> 30	> 30	> 30
CCCCC[C@H](O)/C=C/[C@H]1[C@H](O)CC(=O)[C@@H]1C/C=C\CCCC(=O)O [DINOPROSTONE]	> 30	> 30	> 30	> 30	> 30	> 30	> 30	> 30	11	> 30	> 30	> 30	23	> 30
CCCC[C@H](C)C[C@H](O)/C=C/[C@H]1[C@H](O)CC(=O)[C@@H]1CCCC/C=C/C(=O)O [LIMAPROST]	> 30	> 30	> 30	> 30	> 30	> 30	> 30	–	> 30	> 30	> 30	> 30	> 30	> 30
CC(=O)c1ccc2c(c1)N(CCCN1CCC(CCO)CC1)c1ccccc1S2 [PIPERACETAZINE]	> 30	> 30	> 30	4.7	0.14	0.017	> 30	> 30	> 30	> 30	> 30	–	> 30	> 30
